These results are taken from patent US20030055244A1, “Pyridyl-containing spirocyclic compounds as inhibitors of fibrinogen-dependent platelet aggregation” (priority 1999, published 2003).

Like-named read-outs stand apart in the source and are kept apart here.

One may read the IC50 as the concentration that gives 50% inhibition.

The test system of test [1] is human platelet-rich plasma. Put plainly: Platelet aggregation assay (Aggregation-Human PRP/ADP). In kind it is cell-based. The method, then: Platelet-rich plasma was prepared from healthy human volunteers for use in determining inhibition of platelet aggregation by the compounds.
Platelet-rich plasma was prepared at room temperature by centrifugation of the citrated whole blood at 100 × g for twelve minutes. The platelet rich plasma contained approximately 200-400,000 platelets/μl.
Platelet aggregation was assayed in a 4-channel platelet aggregation profiler (PAP-4, Biodata, Hatboro, Pa.) according to the manufacturers directions. Inhibition of platelet aggregation was studied by adding varying amounts of adenosine diphosphate (ADP) to stirred human platelet-rich plasma. Specifically, the human platelet-rich plasma was incubated with the compound being tested for 1 minute at 37° C. prior to the addition of a variety of aggregating agents most often ADP 5 μM to 20 μM, but also 1 μg/ml collagen, 1 μM U46619 and 0.3 μM platelet activating factor.

Test [2] has as its system human platelet-rich plasma. Described as above. In kind it is cell-based. The source holds these as a separate data set.
Another test addresses T1, GPIIb-IIIa (Homo sapiens, UniProt P05106+P08514).
T1 construct: Purified platelet GPIIb-IIIa receptor was prepared as described by Fitzgerald; from tissue; host or cells: platelets
Put plainly: ELISA IIb-IIIa assay (fibrinogen binding to immobilized purified GPIIb-IIIa). Particulars: inhibition of fibrinogen binding to purified GPIIb-IIIa. As for the experimental part:
No. 1 - The ELISA IIb-IIIa Assay
PIIb-IIIa is coated onto microtiter plates. The coated support is then contacted with fibrinogen and with the test material (e.g., compounds of Formula I) and incubated for a sufficient time to permit maximal binding of fibrinogen to the immobilized GPIIb- Ila. Fibrinogen is typically provided at a concentration of about 5-50 nM and the test material can, if desired, be added at a series of dilution. Typical incubations are 2 to 4 hours at 25° C., the time and temperature being interdependent.
After incubation, the solution containing the fibrinogen and test material is removed and the level of binding of fibrinogen measured by quantitating bound fibrinogen to GPIIb-IIIa. Any suitable means of detection may be used, but it is convenient to employ labeled fibrinogen, for example using biotinylated labels. Such methods are well known in the art.
A. Description of Assays—Plate Assays
After purification, the receptors were stored in 0.1% Triton X-100 at 0.1-1.0 mg/ml.
The receptors were coated to the wells of 96-well flat-bottom ELISA plates (Linbro EIA-Plus microtiter plate, Flow Laboratories) after diluting 1:200 with a solution of 20 mM Tris-HCl, 150 mM NaCl, 1 mM CaCl2, pH 7.4, to reduce the Triton X-100 concentration to below its critical micellar concentration and adding an aliquot of 100 ul to each well. The wells were all allowed to incubate overnight at 4° C., and then aspirated to dryness. Additional sites were blocked by the addition of bovine serum albumin (BSA) at 35 mg/ml in the above buffer for two hours at 30° C. to prevent nonspecific binding. The wells were then washed once with binding buffer ([…] Tris-HCl, 100 mM NaCl 2 mM CaCl2, 1 mg/ml BSA).
The corresponding ligands (fibrinogen, von Willebrand Factor, or vitronectin) were conjugated to biotin using commercially available reagents and standard protocols. The labeled ligands were added to the receptor-coated wells at final concentration of 10 nM (100 ul/well) and incubated for 3 hours at 25° C. in the presence or absence of the test samples. After incubation, the wells are aspirated to dryness and bound ligand is quantitated.
Decreased color development is observed in wells incubated with test samples which inhibit binding of ligand to receptor.
Background: In an ELISA, binding on a coated surface is turned into a signal by an enzyme label.

Setting [3] is: read-out: PRP (ADP-Citrate) IC50.

T1 sequence (P08514 32-887 limits assumed): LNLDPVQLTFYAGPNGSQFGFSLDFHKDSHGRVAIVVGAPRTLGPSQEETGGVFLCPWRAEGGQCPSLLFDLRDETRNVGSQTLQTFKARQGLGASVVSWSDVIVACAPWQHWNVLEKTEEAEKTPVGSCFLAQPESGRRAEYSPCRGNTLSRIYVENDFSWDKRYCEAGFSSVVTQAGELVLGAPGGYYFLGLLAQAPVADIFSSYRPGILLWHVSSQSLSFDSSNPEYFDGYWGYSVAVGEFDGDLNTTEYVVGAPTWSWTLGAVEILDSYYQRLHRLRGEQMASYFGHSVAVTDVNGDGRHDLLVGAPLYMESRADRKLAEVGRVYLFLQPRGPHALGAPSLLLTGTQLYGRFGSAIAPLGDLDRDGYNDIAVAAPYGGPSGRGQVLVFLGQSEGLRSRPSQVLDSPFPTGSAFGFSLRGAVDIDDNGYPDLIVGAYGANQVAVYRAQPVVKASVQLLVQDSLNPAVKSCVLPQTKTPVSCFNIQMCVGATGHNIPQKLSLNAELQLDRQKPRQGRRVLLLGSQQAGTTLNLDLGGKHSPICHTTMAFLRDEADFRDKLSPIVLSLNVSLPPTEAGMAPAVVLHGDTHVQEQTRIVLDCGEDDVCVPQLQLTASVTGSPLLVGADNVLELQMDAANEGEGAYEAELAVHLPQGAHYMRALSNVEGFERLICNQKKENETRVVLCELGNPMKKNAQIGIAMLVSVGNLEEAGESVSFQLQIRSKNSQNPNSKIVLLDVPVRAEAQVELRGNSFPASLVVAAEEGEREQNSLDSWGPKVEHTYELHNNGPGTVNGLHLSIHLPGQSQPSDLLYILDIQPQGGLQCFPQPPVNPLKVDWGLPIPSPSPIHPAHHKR
T1 sequence (P08514 891-1039 limits assumed): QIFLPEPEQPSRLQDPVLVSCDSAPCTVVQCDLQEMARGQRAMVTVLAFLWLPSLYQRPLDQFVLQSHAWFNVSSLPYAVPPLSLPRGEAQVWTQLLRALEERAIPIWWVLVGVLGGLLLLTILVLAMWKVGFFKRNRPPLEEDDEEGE
T1 sequence (P05106 27-788): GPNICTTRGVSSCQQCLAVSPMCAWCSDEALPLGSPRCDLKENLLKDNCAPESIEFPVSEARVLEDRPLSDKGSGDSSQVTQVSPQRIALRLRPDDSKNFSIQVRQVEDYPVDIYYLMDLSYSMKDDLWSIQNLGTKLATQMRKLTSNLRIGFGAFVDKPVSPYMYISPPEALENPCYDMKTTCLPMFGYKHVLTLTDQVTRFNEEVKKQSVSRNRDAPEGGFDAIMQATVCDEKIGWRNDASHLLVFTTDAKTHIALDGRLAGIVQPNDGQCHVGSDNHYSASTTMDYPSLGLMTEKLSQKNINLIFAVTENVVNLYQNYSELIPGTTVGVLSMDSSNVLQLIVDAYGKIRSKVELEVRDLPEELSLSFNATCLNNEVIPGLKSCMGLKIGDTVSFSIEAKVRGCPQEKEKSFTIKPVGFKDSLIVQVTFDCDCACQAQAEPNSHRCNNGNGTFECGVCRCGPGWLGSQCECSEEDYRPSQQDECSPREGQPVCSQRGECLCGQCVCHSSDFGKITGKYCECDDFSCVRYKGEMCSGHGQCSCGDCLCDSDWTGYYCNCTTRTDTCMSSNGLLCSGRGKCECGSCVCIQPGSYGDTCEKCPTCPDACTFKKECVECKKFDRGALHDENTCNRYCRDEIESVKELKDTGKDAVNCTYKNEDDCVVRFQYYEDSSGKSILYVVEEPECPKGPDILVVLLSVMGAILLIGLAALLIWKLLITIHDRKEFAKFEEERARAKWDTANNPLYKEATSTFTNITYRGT

In the case of `O=C(O)CC(=O)N1CCN(C(=O)N2CCC3(CC2)CCN(c2ccncc2)C3)CC1` [Example 31, 3-oxo-3-(4-{[-(4-pyridyl)-2,8-diazaspiro[4.5]dec-8-yl]carbonyl}piperazino) propanoic acid], the IC50 was 660 nM in test [1] (setting [3]) and 3600 nM in test [2] (read-out: PRP (ADP-PPACK) IC50).

With `O=C(O)CCN1CCC(C(=O)N2CCC3(CC2)CCN(c2ccncc2)C3)CC1` [Example 49, 3-(4-{[2-(4-pyridyl)-2,8-diazaspiro[4.5]dec-8-yl]carbonyl}piperidino) propanoic acid], the values for the IC50 (at GPIIb-IIIa; in test [1] (read-out: PRP IC50)) were 17 nM and 1010 nM, respectively.

As to `O=C(N[C@@H](CCC(=O)N1CCC2(CCN(c3ccncc3)CC2)C1)C(=O)O)OCc1ccccc1` [Example 20, (2S)-2-{[(benzyloxy)carbonyl]amino}-5-oxo-5-[8-(4-pyridyl)-2,8-diazaspiro [4.5]dec-2-yl]pentanoic acid], the IC50 on GPIIb-IIIa was 12 nM; in test [1] (setting [3]), 9100 nM.

As to `O=C(O)CN1CCN(C(=O)N2CCC3(CC2)CCN(c2ccncc2)C3)CC1` [Example 41], the IC50 at GPIIb-IIIa is 252 nM; in test [1] (read-out: PRP IC50) it was 8920 nM.

Consider `O=C(O)CCCC(=O)N1CCC2(CC1)CCN(c1ccncc1)CC2` [Example 1, 5-oxo-5-(9-(4-pyridyl)-3,9-diazaspiro[5.5]undec-3-yl)pentanoic acid], for which the IC50 on GPIIb-IIIa turned out to be 238 nM; in test [1] (read-out: PRP IC50), 5100 nM.

As for `O=C(O)CCCCCC(=O)N1CCC2(CCN(c3ccncc3)CC2)C1` [Example 24, 7-oxo-7-(8-(4-pyridyl)-2,8-diazaspiro[4.5]dec-2-yl)heptanoic acid], the values for the IC50 (on GPIIb-IIIa; in test [1] (setting [3])) were 16 nM and 1300 nM, respectively.

On to `Cc1ccc(S(=O)(=O)N[C@@H](CNC(=O)C2CCC3(CC2)CCN(c2ccncc2)CC3)C(=O)O)cc1` [Example 14, (2S)-2-{[(4-methylphenyl)sulfonyl]amino}-3-({[3-(4-pyridyl)-3-azaspiro [5.5]undec-9-yl]carbonyl}amino)propanoic acid], for which the IC50 at GPIIb-IIIa amounted to 1 nM; in test [1] (setting [3]), 98 nM; in test [2] (read-out: PRP (ADP-PPACK) IC50), 169 nM.

As for `O=C(O)COC1CCN(C(=O)N2CCC3(CCN(c4ccncc4)CC3)C2)CC1` [Example 26, 2-((1-((8-(4-pyridyl)-2,8-diazaspiro[4.5]dec-2-yl)carbonyl)-4-piperidyl)oxy)acetic acid], the IC50 came out at 457 nM on GPIIb-IIIa and 1000 nM in test [1] (setting [3]).

With `O=C(O)CN1CCN(C(=O)N2CCC3(CCN(c4ccncc4)CC3)C2)CC1=O` [Example 27, 2-(2-oxo-4-((8-(4-pyridyl)-2,8-diazaspiro[4.5]dec-2-yl)carbonyl)-4-piperazino) acetic acid], the values for the IC50 (on GPIIb-IIIa; in test [1] (setting [3])) were 35 nM and 568 nM, respectively.

As for `O=C(N[C@@H](CCC(=O)N1CCC2(CC1)CCN(c1ccncc1)CC2)C(=O)O)OCc1ccccc1` [Example 5, 2(S)-2-{[(benzyloxy)carbonyl]amino}-5-oxo-5-[9-(4-pyridyl)-3,9-diazaspiro [5.5]undec-3-yl]pentanoic acid], the values for the IC50 (at GPIIb-IIIa; in test [1] (read-out: PRP IC50)) were 7 nM and 4600 nM, respectively.

Consider `O=C(O)Cc1csc(NC(=O)CN2CCC3(CC2)CCN(c2ccncc2)C3)n1` [Example 54, 2-[2-({2-[2-(4-pyridyl)-2,8-diazaspiro[4.5]dec-8-yl]acetyl}amino)-1,3-thiazol-4-yl]acetic acid], for which the IC50 at GPIIb-IIIa was found to be 2280 nM; in test [1] (setting [3]), 32100 nM.

`Cc1noc(C)c1S(=O)(=O)N[C@@H](CNC(=O)C1CCC2(CC1)CCN(c1ccncc1)CC2)C(=O)O` [Example 13, (2S)-2-{[(3,5-dimethyl-4-isoxazolyl)sulfonyl]amino}-3-({[3-(4-pyridyl)-3-azaspiro [5.5]undec-9-yl]carbonyl}amino)propanoic acid]: the IC50 at GPIIb-IIIa amounted to 1 nM; in test [1] (setting [3]), 44 nM; in test [2] (read-out: PRP (ADP-PPACK) IC50), 68 nM.

Take `O=C(O)CC(=O)N1CCC(C(=O)N2CCC3(CC2)CCN(c2ccncc2)CC3)CC1` [Example 12, 3-oxo-3-(4-{[9-(4-pyridyl)-3,9-diazaspiro[5.5]undec-3-yl]carbonyl}piperidino)propanoic acid]: the results for the IC50 (on GPIIb-IIIa; in test [1] (read-out: PRP IC50)) were 39 nM and 1770 nM, respectively.

With `O=C(O)COCC1CCN(C(=O)N2CCC3(CC2)CCN(c2ccncc2)C3)CC1` [Example 45, 2-[(1-{[2-(4-pyridyl)-2,8-diazaspiro[4.5]dec-8-yl]carbonyl}-4-piperidyl)-methoxy]acetic acid], the values for the IC50 (on GPIIb-IIIa; in test [1] (read-out: PRP IC50)) were 106 nM and 2820 nM, respectively.

Consider `O=C(O)CCCCCCC(=O)N1CCC2(CCN(c3ccncc3)CC2)C1` [Example 23, 8-oxo-8-(8-(4-pyridyl)-2,8-diazaspiro[4.5]dec-2-yl)octanoic acid], for which the IC50 on GPIIb-IIIa was 196 nM; in test [1] (setting [3]), 18700 nM.

In the case of `CCCCS(=O)(=O)N[C@@H](CNC(=O)C1CCC2(CC1)CCN(c1ccncc1)CC2)C(=O)O` [Example 15], the IC50 at GPIIb-IIIa was found to be 10 nM; in test [1] (read-out: PRP (ADP) IC50), 168 nM; in test [2] (read-out: PRP (PPACK) IC50), 686 nM.

As for `O=C(O)CCCCC(=O)N1CCC2(CC1)CCN(c1ccncc1)CC2` [Example 2, 6-oxo-6-(9-(4-pyridyl)-3,9-diazaspiro[5.5]undec-3-yl)hexanoic acid], the values for the IC50 (at GPIIb-IIIa; in test [1] (read-out: PRP IC50)) were 258 nM and 4500 nM, respectively.

Take `O=C(O)COC1CCN(C(=O)N2CCC3(CC2)CCN(c2ccncc2)C3)CC1` [Example 44]: the IC50 on GPIIb-IIIa is 138 nM; in test [1] (read-out: PRP IC50), 3780 nM.

With `Cc1noc(C)c1S(=O)(=O)N[C@@H](CCC(=O)N1CCC2(CC1)CCN(c1ccncc1)C2)C(=O)O` [Example 34, (2S)-2-{[(3,5-dimethyl-4-isoxazolyl)sulfonyl]amino}-5-oxo-5-[2-(4-pyridyl)-2,8-diazaspiro [4.5]dec-8-yl]pentanoic acid], the IC50 at GPIIb-IIIa worked out at 2 nM; in test [1] (setting [3]), 271 nM.

Consider `Cc1noc(C)c1S(=O)(=O)N[C@@H](CNC(=O)N1CCC2(CC1)CCN(c1ccncc1)CC2)C(=O)O` [Example 10, (2S)-2-{[(3,5-dimethyl-4-isoxazolyl)sulfonyl]amino}-3-( {[9-(4-pyridyl)-3,9-diazaspiro [5.5]undec-3-yl]carbonyl}amino)propanoic acid], for which the values for the IC50 (at GPIIb-IIIa; in test [1] (read-out: PRP IC50)) were 1 nM and 31 nM, respectively.

On to `CCCCOC(=O)N[C@@H](CCC(=O)N1CCC2(CC1)CCN(c1ccncc1)CC2)C(=O)O` [Example 9, 2(S)-2-[(butoxycarbonyl)amino]-5-oxo-5-[9-(4-pyridyl)-3,9-diazaspiro [5.5]undec-3-yl]pentanoic acid], for which the IC50 at GPIIb-IIIa is 2 nM; in test [1] (read-out: PRP IC50), 722 nM.

Take `O=C(O)COC1CCN(C(=O)N2CCC3(CC2)CCN(c2ccncc2)CC3)CC1` [Example 11, 2-[(1 -{[9-(4-pyridyl)-3,9-diazaspiro[5.5]undec-3-yl]carbonyl}-4-piperidyl)oxy]acetic acid]: the values for the IC50 (on GPIIb-IIIa; in test [1] (read-out: PRP IC50)) were 129 nM and 2650 nM, respectively.
